These are literature values, as cited in article PMC4366302 (Organic & biomolecular chemistry, 2015).

The conditions of the series: known inherent solubilities.

On to `O=C(NC1=CC(=O)[C@H]2O[C@H]2[C@H]1O)c1cc2ccccc2[nH]c1=O` [PBS-1086], for which the “S0 (inherent solubility of drug)” value was 4.5 ± 0.90 µM. `O=C1Cc2cc(CCN3CCN(c4nsc5ccccc45)CC3)c(Cl)cc2N1` [Ziprasidone, ziprasidone]: the “S0 (inherent solubility of drug)” value is 63 ± 3.5 µM.
